In US20150322033A1, “ANTIBACTERIAL AGENT” (priority 2012, published 2015):
≈ marks a conversion by molar mass, not a printed value. Where two headings read alike, the source gives them in different places.

Legend:
[1] = tested on: S. aureus FDA209P (ATCC 6538P); experiment: microbe, parasite or virus in culture; type: cell-based, Staphylococcus aureus; conditions: for MIC: Staphylococcus aureus, read-out: MIC (mg/L) FDA209P
Procedure: (§1) S. aureus Mu50 (refer to Hiramatsu, K., Hanaki H., et al., J. Antimicrob. Chemother., 1997, 40(1), 135-6) or S. aureus FDA209P (ATCC 6538P) was cultured overnight at 37° C. in 4 mL of TBS (Tryptical Soy Broth, produced by Becton Dickinson) with shaking. After completion of the culture, the cells were suspended in fresh TBS to prepare a cell suspension showing an absorbance of 0.3 at 578 nm. Then, the cell suspension was diluted 500 times with CAMHB mentioned above.
(§2) CAMHB containing each test compound at each of the aforementioned concentrations was added to each well of a 96-well plate in a volume of 50 μL/well, the aforementioned cell suspension diluted 500 time was added to the well in a volume of 50 μL/well, and stationary culture was carried out overnight at 37° C.
(§3) MIC values (mg/L) of the flavones and quinolones against the strains were measured in the same manner as that of the measurement of MIC of Example 1, except that CAMHB containing each of the aforementioned flavones and quinolones prepared in Example 2 was used instead of CAMHB containing each of the test compounds.
(§4) MIC values of the flavones and quinolone for the strains were measured in the same manners as those of Example 1, except that S. aureus Mu50 NR-1 was also used as Staphylococcus aureus in addition to S. aureus FDA209P and S. aureus Mu50, cell suspensions of the strains were prepared.
(§5) In the same manner as that of Example 1, MIC values of M-246, M-21, J-Q21, and J-Q12.1 for Staphylococcus aureus were measured. M-246 and M-21 were obtained as commercial products, and as J-Q21 and J-Q12.1, those synthesized in Examples 6 and 7 were used.

S. aureus Mu50 = experiment: microbe, parasite or virus in culture; type: cell-based, Staphylococcus aureus; conditions: for MIC (mg/L) Mu50: Example 1, Tables 1 to 10; for MIC: Staphylococcus aureus
Procedure: as §1, §2, §3, §4, §5

[2] = MU50, read-out: MIC (mg/L) Mu50
[3] = MU50, read-out: MIC (mg/L) Mu50, Example 1, Tables 1 to 10

Structure (SMILES)	MIC ([1]; Example 1, Tables 1 to 10)	MIC (S. aureus Mu50; [3])	also measured
COc1cc(O)c2c(=O)c(-c3ccc(OC4OC(CO)C(O)C(O)C4O)cc3)coc2c1 (stereo not drawn) [compound 78]	–	–	MIC (mg/L) FDA209P ([1]; Example 1, Tables 1 to 10): >128 mg/L; MIC (mg/L) Mu50 (S. aureus Mu50): >128 mg/L
COc1ccc(-c2coc3cc(OC(=O)N(C)C)cc(O)c3c2=O)cc1OC [compound 79]	–	–	MIC [1]: > 128 mg/L; MIC (S. aureus Mu50; [2]): > 128 mg/L
COc1ccc(-c2coc3cc(OC(=O)N(C)C)cc(OC)c3c2=O)cc1OC [compound 80]	–	–	MIC [1]: > 128 mg/L; MIC (S. aureus Mu50; [2]): > 128 mg/L
O=c1c(-c2ccc(OC3OC(CO)C(O)C(O)C3O)cc2)coc2cc(O)cc(O)c12 (stereo not drawn) [compound 81]	–	–	MIC (mg/L) FDA209P ([1]; Example 1, Tables 1 to 10): >128 mg/L; MIC (mg/L) Mu50 (S. aureus Mu50): >128 mg/L
CC(=O)Oc1ccc(-c2coc3cc(OC(C)=O)cc(OC(C)=O)c3c2=O)cc1 [compound 82]	> 128 mg/L	> 128 mg/L	–
Cc1oc2cc(O)cc(O)c2c(=O)c1-c1ccc2c(c1)OCCCO2 [compound 83]	128 mg/L (≈ 376 µM)	128 mg/L (≈ 376 µM)	–
COc1cc(OC)c2c(=O)c(-c3ccc(OC4OC(CO)C(O)C(O)C4O)cc3)coc2c1 (stereo not drawn) [compound 85]	–	–	MIC (mg/L) FDA209P ([1]; Example 1, Tables 1 to 10): >128 mg/L; MIC (mg/L) Mu50 (S. aureus Mu50): >128 mg/L
Cc1cc2c(cc1-c1c(C)oc3cc(O)cc(O)c3c1=O)OCCO2 [compound 87]	–	–	MIC (mg/L) FDA209P ([1]; Example 1, Tables 1 to 10): 64 mg/L (≈ 188 µM); MIC (mg/L) Mu50 (S. aureus Mu50): 128 mg/L (≈ 376 µM)
COc1cc(OC)c2c(=O)c(-c3cc4c(cc3C)OCCO4)c(C)oc2c1 [compound 88]	–	–	MIC (mg/L) FDA209P ([1]; Example 1, Tables 1 to 10): 128 mg/L (≈ 347 µM); MIC (mg/L) Mu50 (S. aureus Mu50): >128 mg/L
CC(=O)Oc1cc(OC(C)=O)c2c(=O)c(-c3cc4c(cc3C)OCCO4)c(C)oc2c1 [compound 89]	–	–	MIC (mg/L) FDA209P ([1]; Example 1, Tables 1 to 10): 128 mg/L (≈ 302 µM); MIC (mg/L) Mu50 (S. aureus Mu50): 128 mg/L (≈ 302 µM)
CCOC(=O)c1oc2cc(OC)cc(O)c2c(=O)c1-c1ccc(OC)cc1 [compound 91]	> 128 mg/L	> 128 mg/L	–
COc1ccc(-c2c(C(=O)O)oc3cc(OC)cc(OC)c3c2=O)cc1 [compound 92]	> 128 mg/L	> 128 mg/L	–
COc1cc(-c2coc3cc(O)c(OC)c(O)c3c2=O)cc(O)c1OC [compound 93]	128 mg/L (≈ 355 µM)	128 mg/L (≈ 355 µM)	–
COc1ccc(-c2coc3cc(O)c(OC)c(O)c3c2=O)cc1 [compound 94]	128 mg/L (≈ 407 µM)	128 mg/L (≈ 407 µM)	–
O=C(O)C1OC(Oc2ccc(-c3coc4cc(O)cc(O)c4c3=O)cc2)C(O)C(O)C1O (stereo not drawn) [compound 95]	–	–	MIC (mg/L) FDA209P ([1]; Example 1, Tables 1 to 10): 128 mg/L (≈ 287 µM); MIC (mg/L) Mu50 (S. aureus Mu50): >128 mg/L
COc1cc(OC2OC(CO)C(O)C(O)C2O)c2c(=O)c(-c3ccc(O)cc3)coc2c1 (stereo not drawn) [compound 96]	–	–	MIC (mg/L) FDA209P ([1]; Example 1, Tables 1 to 10): 128 mg/L (≈ 287 µM); MIC (mg/L) Mu50 (S. aureus Mu50): 128 mg/L (≈ 287 µM)
COc1c2c(cc3occ(-c4ccc(O)cc4)c(=O)c13)OCO2 [compound 97]	–	–	MIC (mg/L) FDA209P ([1]; Example 1, Tables 1 to 10): 128 mg/L (≈ 410 µM); MIC (mg/L) Mu50 (S. aureus Mu50): 128 mg/L (≈ 410 µM)
COc1cc(OC)c(-c2coc3cc(O)cc(O)c3c2=O)cc1OC [compound 98]	128 mg/L (≈ 372 µM)	> 128 mg/L	–
COc1c(O)cc2occ(-c3ccc(O)cc3)c(=O)c2c1O [compound 100]	128 mg/L (≈ 426 µM)	128 mg/L (≈ 426 µM)	–
O=c1c(-c2ccc(O)cc2O)coc2cc(O)cc(O)c12 [compound 101]	128 mg/L (≈ 447 µM)	128 mg/L (≈ 447 µM)	–
O=C(O)COc1cc(O)c2c(=O)c(-c3ccc4c(c3)OCCO4)coc2c1 [compound 102]	128 mg/L (≈ 346 µM)	128 mg/L (≈ 346 µM)	–

Structure (SMILES)	MIC ([1]; Example 1, Tables 1 to 10)	MIC (S. aureus Mu50; [3])	also measured
CC(=O)Oc1cc(OC(C)=O)c2c(=O)c(-c3ccc4c(c3)OCCO4)coc2c1 [compound 104]	128 mg/L (≈ 323 µM)	64 mg/L (≈ 161 µM)	–
CC1(C)C=Cc2c(c3c(c4c2OCC(c2ccc(O)cc2)C4=O)OC(C)(C)C=C3)O1 (stereo not drawn) [compound 105]	128 mg/L (≈ 316 µM)	128 mg/L (≈ 316 µM)	–
O=c1c(-c2ccc3c(c2)OCCO3)coc2cc(O)cc(O)c12 [compound 106]	–	–	MIC (mg/L) FDA209P ([1]; Example 1, Tables 1 to 10): 64 mg/L (≈ 205 µM); MIC (mg/L) Mu50 (S. aureus Mu50): 64 mg/L (≈ 205 µM)
O=c1c(-c2ccc3c(c2)OCCCO3)coc2cc(O)cc(O)c12 [compound 107]	128 mg/L (≈ 392 µM)	128 mg/L (≈ 392 µM)	–
COc1ccc(-c2coc3cc(O)cc(OC)c3c2=O)cc1OC [compound 108]	128 mg/L (≈ 390 µM)	128 mg/L (≈ 390 µM)	–
CC(=O)Oc1cc(OC(C)=O)c2c(=O)c(-c3ccc4c(c3)OCCCO4)c(C)oc2c1 [compound 109]	128 mg/L (≈ 302 µM)	128 mg/L (≈ 302 µM)	–
COc1ccc(-c2coc3cc(OC4OC(CO)C(O)C(O)C4O)cc(O)c3c2=O)cc1 (stereo not drawn) [compound 110]	–	–	MIC (mg/L) FDA209P ([1]; Example 1, Tables 1 to 10): 128 mg/L (≈ 287 µM); MIC (mg/L) Mu50 (S. aureus Mu50): 128 mg/L (≈ 287 µM)
COc1cc(OC)c2c(=O)c(-c3ccc(OC)c(OC)c3)coc2c1 [compound 111]	> 128 mg/L	128 mg/L (≈ 374 µM)	–
COc1cc(O)c2c(=O)c(-c3ccc(O)cc3)coc2c1 [compound 112]	> 128 mg/L	> 128 mg/L	–
O=c1c(-c2ccc(O)cc2)coc2cc(O)cc(O)c12 [compound 113]	128 mg/L (≈ 474 µM)	128 mg/L (≈ 474 µM)	–
CCOC(=O)c1oc2cc(O)cc(O)c2c(=O)c1-c1ccc(OC)c(OC)c1 [compound 114]	> 128 mg/L	> 128 mg/L	–
COc1ccc(-c2coc3cc(O)cc(O)c3c2=O)cc1 [compound 116]	128 mg/L (≈ 450 µM)	128 mg/L (≈ 450 µM)	–
COc1ccc(-c2coc3cc(O)cc(O)c3c2=O)cc1OC [compound 117]	> 128 mg/L	> 128 mg/L	–
COc1ccc(-c2c(C(F)(F)F)oc3cc(O)cc(O)c3c2=O)cc1OC [compound 118]	128 mg/L (≈ 335 µM)	64 mg/L (≈ 167 µM)	–
COc1ccc(-c2c(C)oc3cc(OC(C)=O)cc(OC(C)=O)c3c2=O)cc1 [compound 119]	> 128 mg/L	> 128 mg/L	–
O=c1c(-c2ccc(O[C@@H]3O[C@H](CO)[C@@H](O)[C@H](O)[C@H]3O)cc2)coc2cc(O)cc(O)c12 [compound 120]	–	–	MIC (mg/L) FDA209P ([1]; Example 1, Tables 1 to 10): >128 mg/L; MIC (mg/L) Mu50 (S. aureus Mu50): >128 mg/L
COc1cc(OC)c2c(=O)c(-c3ccc(O)cc3)coc2c1 [compound 121]	> 128 mg/L	> 128 mg/L	–
CC1(CO)C=Cc2c(cc3occ(-c4ccc(O)cc4)c(=O)c3c2O)O1 (stereo not drawn) [compound 122]	> 128 mg/L	> 128 mg/L	–
O=C1CC(c2ccc(O)cc2)Oc2ccccc21 (stereo not drawn) [compound 123, 4′-Hydroxyflavanone]	128 mg/L (≈ 533 µM)	128 mg/L (≈ 533 µM)	–
O=C1CC(c2cccc(O)c2)Oc2ccccc21 (stereo not drawn) [compound 124, 3′-Hydroxyflavanone]	128 mg/L (≈ 533 µM)	128 mg/L (≈ 533 µM)	–
COc1ccc(C2CC(=O)c3c(O)cc(O)cc3O2)cc1O (stereo not drawn) [compound 125]	128 mg/L (≈ 423 µM)	> 128 mg/L	–
